{
  "source": "patent US20170007675A1",
  "about": "“STABLE PEPTIDE FORMULATIONS AND METHODS FOR PREPARATION” (XERIS PHARMACEUTICALS, INC., priority 2014, published 2017)",
  "settings": "0.9 mg/mL in neat DMSO; 40° C.; six weeks; N=3",
  "procedure": "Sample solutions (N=3) were prepared by solubilizing the lyophilized powder directly in neat DMSO to a concentration of 0.9 mg/mL pramlintide acetate. To test formulation stability in the polar aprotic solvent, the samples (N=3) were stored in sealed glass vials at 40° C. for six weeks.",
  "data": [
    {"substance": "Pramlintide acetate", "values": [
      {"measurement": "appearance of sample solutions after storage", "value": "clear and absent of precipitation and visible aggregates"}
    ]}
  ]
}
